Data reported in the supplement of paper PMC10307832.

Key:
Assay in all cases: relative viability (nuclei count vs DMSO), 5 days (fraction); higher = more cells survive
Calu-6 = tested on: Calu-6
Outline: (§1)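 Lung cancer cell lines were seeded in 1536-well plates and dosed by pin tool the next day, with either a single drug or a fixed anchor-drug dose combined with five library-drug doses (not always all listed) spaced in √10 steps. Five days later, one step fixed the cells and stained their nuclei (final 0.05% Triton X-100, 1% formaldehyde, 1 ug/ml Hoechst), and nuclei were counted on 4× images. Relative viability is the nuclei count in treated wells divided by the count in vehicle wells, and each value is the median of duplicate plates.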

A549 = tested on: A549
Outline: as §1

NCI-H1703 = tested on: NCI-H1703
Outline: as §1

HCC-366 = tested on: HCC-366
Outline: as §1

NCI-H727 = tested on: NCI-H727
Outline: as §1

EBC-1 = tested on: EBC-1
Outline: as §1

EPLC-272H = tested on: EPLC-272H
Outline: as §1

ChaGo-K-1 = tested on: ChaGo-K-1
Outline: as §1

NCI-H1299 = tested on: NCI-H1299
Outline: as §1

IA-LM = tested on: IA-LM
Outline: as §1

SMILES: Oc1nc(-c2ccc(C(F)(F)F)cc2)nc2c1CSCC2 [XAV939] + O=C(c1cc(Cc2n[nH]c(=O)c3ccccc23)ccc1F)N1CCN(C(=O)C2CC2)CC1 [Olaparib] (partner 8 µM)
- relative viability (Calu-6; first compound 0.08 µM): 0.556
- relative viability (Calu-6; first compound 0.253 µM): 0.547
- relative viability (Calu-6; first compound 0.8 µM): 0.544
- relative viability (Calu-6; first compound 2.53 µM): 0.504
- relative viability (A549; first compound 0.08 µM): 0.357
- relative viability (A549; first compound 0.253 µM): 0.265
- relative viability (A549; first compound 0.8 µM): 0.246
- relative viability (A549; first compound 2.53 µM): 0.19
- relative viability (NCI-H1703; first compound 0.08 µM): 0.415
- relative viability (NCI-H1703; first compound 0.253 µM): 0.236
- relative viability (NCI-H1703; first compound 0.8 µM): 0.408
- relative viability (NCI-H1703; first compound 2.53 µM): 0.485
- relative viability (HCC-366; first compound 0.08 µM): 0.414
- relative viability (HCC-366; first compound 0.253 µM): 0.326
- relative viability (HCC-366; first compound 0.8 µM): 0.283
- relative viability (HCC-366; first compound 2.53 µM): 0.175
- relative viability (NCI-H727; first compound 0.08 µM): 0.706
- relative viability (NCI-H727; first compound 0.8 µM): 0.696
- relative viability (NCI-H727; first compound 2.53 µM): 0.678
- relative viability (EBC-1; first compound 0.08 µM): 0.722
- relative viability (EBC-1; first compound 0.253 µM): 0.623
- relative viability (EBC-1; first compound 0.8 µM): 0.619
- relative viability (EBC-1; first compound 2.53 µM): 0.607
- relative viability (EPLC-272H; first compound 0.08 µM): 0.745
- relative viability (EPLC-272H; first compound 0.253 µM): 0.89
- relative viability (EPLC-272H; first compound 0.8 µM): 0.97
- relative viability (EPLC-272H; first compound 2.53 µM): 0.719
- relative viability (ChaGo-K-1; first compound 0.08 µM): 0.409
- relative viability (ChaGo-K-1; first compound 0.253 µM): 0.392
- relative viability (ChaGo-K-1; first compound 0.8 µM): 0.384
- relative viability (ChaGo-K-1; first compound 2.53 µM): 0.376
- relative viability (NCI-H1299; first compound 0.08 µM): 0.937
- relative viability (NCI-H1299; first compound 0.253 µM): 0.883
- relative viability (NCI-H1299; first compound 0.8 µM): 0.931
- relative viability (NCI-H1299; first compound 2.53 µM): 0.914
- relative viability (IA-LM; first compound 0.08 µM): 0.824
- relative viability (IA-LM; first compound 0.253 µM): 0.633
- relative viability (IA-LM; first compound 0.8 µM): 0.728
- relative viability (IA-LM; first compound 2.53 µM): 0.699

SMILES: Oc1nc(-c2ccc(C(F)(F)F)cc2)nc2c1CSCC2 [XAV939] + CC(=O)c1c(C)c2cnc(Nc3ccc(N4CCNCC4)cn3)nc2n(C2CCCC2)c1=O [Palbociclib] (partner 0.5 µM)
- relative viability (HCC-366; first compound 0.08 µM): 0.444
- relative viability (HCC-366; first compound 0.253 µM): 0.334
- relative viability (HCC-366; first compound 0.8 µM): 0.352
- relative viability (HCC-366; first compound 2.53 µM): 0.261
- relative viability (NCI-H727; first compound 0.08 µM): 0.711
- relative viability (NCI-H727; first compound 0.8 µM): 0.642
- relative viability (NCI-H727; first compound 2.53 µM): 0.644
- relative viability (EPLC-272H; first compound 0.08 µM): 0.342
- relative viability (EPLC-272H; first compound 0.253 µM): 0.251
- relative viability (EPLC-272H; first compound 0.8 µM): 0.305
- relative viability (EPLC-272H; first compound 2.53 µM): 0.332
- relative viability (ChaGo-K-1; first compound 0.08 µM): 0.99
- relative viability (ChaGo-K-1; first compound 0.253 µM): 0.925
- relative viability (ChaGo-K-1; first compound 0.8 µM): 0.915
- relative viability (ChaGo-K-1; first compound 2.53 µM): 0.887

SMILES: C=C1C(=O)O[C@@H](CCCCCCCC)[C@@H]1C(=O)O [C-75] + CC(=O)c1c(C)c2cnc(Nc3ccc(N4CCNCC4)cn3)nc2n(C2CCCC2)c1=O [Palbociclib] (partner 0.5 µM)
- relative viability (HCC-366; first compound 0.08 µM): 0.363
- relative viability (HCC-366; first compound 0.253 µM): 0.477
- relative viability (HCC-366; first compound 0.8 µM): 0.33
- relative viability (HCC-366; first compound 2.53 µM): 0.334
- relative viability (HCC-366; first compound 8 µM): 0.343
- relative viability (NCI-H727; first compound 0.08 µM): 0.755
- relative viability (NCI-H727; first compound 0.253 µM): 0.667
- relative viability (NCI-H727; first compound 0.8 µM): 0.544
- relative viability (NCI-H727; first compound 2.53 µM): 0.614
- relative viability (NCI-H727; first compound 8 µM): 0.624
- relative viability (EPLC-272H; first compound 0.08 µM): 0.312
- relative viability (EPLC-272H; first compound 0.253 µM): 0.387
- relative viability (EPLC-272H; first compound 0.8 µM): 0.333
- relative viability (EPLC-272H; first compound 2.53 µM): 0.244
- relative viability (EPLC-272H; first compound 8 µM): 0.365
- relative viability (ChaGo-K-1; first compound 0.08 µM): 0.87
- relative viability (ChaGo-K-1; first compound 0.253 µM): 0.894
- relative viability (ChaGo-K-1; first compound 0.8 µM): 0.888
- relative viability (ChaGo-K-1; first compound 2.53 µM): 0.519
- relative viability (ChaGo-K-1; first compound 8 µM): 0.915
